Paper PMC9404985, “Development of Dicationic Bisguanidine-Arylfuran Derivatives as Potent Agents against Gram-Negative Bacteria” (Antibiotics, 2022)
pEC50: −log10 of the molar value. Like-named read-outs stand apart in the source and are kept apart here.

Key:
[1] = test system: K. pneumoniae (CCUG #225T); experiment: Antibacterial activity against isolates (Omnilog, Biolog redox dye); format: cell-based, Klebsiella pneumoniae; settings: for pEC50 / EC90: Klebsiella pneumoniae, ca-MH broth, 24 h, 37 °C; for Selectivity index K. pneumoniae (CCUG #225T): SI = ((EC50 MCF-7 + EC50 HepG2)/2)/EC50 bacterial strain
Method: (§1) The antibacterial activities of eight compounds (1, 3, 4, 6, 8, 10, 16, and 17) were tested against 10 different isolates of Gram-negative bacteria from human and other sources, two E. coli (CCUG #67180 and CCUG #17620/ATCC #25922, control strain), two K. pneumoniae (CCUG #58547 and CCUG #225T), two P. aeruginosa (CCUG #17619 and CCUG #59347), two A. baumannii (CCUG #57035 and CCUG #57250), E. cloacae (CCUG #6323T), and E. hormaechei (CCUG #58962) in a 96-well plate format. The compounds to test were 3-fold diluted in six steps in cation-adjusted Mueller-Hinton (ca-MH) broth to final concentrations spanning from 30 to 0.12 µM, i.e., a 1667–416,667 times dilution from the 50 mM stocks. Bacterial mass from the ten isolates grown overnight on horse blood or Mueller–Hinton agar plates was suspended in ca-MH and adjusted to a final inoculum cell density of ~5 × 10^5 CFU/mL. For all assays, Biolog redox dye A diluted 100× from the stock solution was used for measurements of all ten isolates (up to a total volume of 120 µL per well). All plates included one well per isolate with only inoculum and dye but no test compound (i.e., positive control) and one well per isolate with inoculum, dye and DMSO diluted 1667×, corresponding to the DMSO concentration in the wells with the highest concentration of test compound. All measurements were performed using the Omnilog microplate reader (Biolog, Hayward, CA, USA) where the 96-well plates were read at 15 min intervals for a total of 24 h at 37 °C.

[2] = test system: A. baumannii (CCUG #57035); experiment: as above; format: cell-based, Acinetobacter baumannii; settings: for pEC50 / EC90: Acinetobacter baumannii, CCUG57035, ca-MH broth, 24 h, 37 °C; for Selectivity index A. baumannii (CCUG #57035): SI = ((EC50 MCF-7 + EC50 HepG2)/2)/EC50 bacterial strain
Method: as §1, with “The compounds to test were 3-fold diluted in six steps in cation-adjusted Mueller-Hinton (ca-MH) broth to final concentrations spanning from 30 to 0.12 µM, i.e., a 1667–416,667 times dilution from the 50 mM stocks.” left out

[3] = test system: E. hormaechei (CCUG #58962); experiment: as above; format: cell-based, Enterobacter hormaechei; settings: for pEC50 / EC90: Enterobacter hormaechei, CCUG58962, ca-MH broth, 24 h, 37 °C; for Selectivity index E. hormaechei (CCUG #58962): SI = ((EC50 MCF-7 + EC50 HepG2)/2)/EC50 bacterial strain
Method: as §1, with “The compounds to test were 3-fold diluted in six steps in cation-adjusted Mueller-Hinton (ca-MH) broth to final concentrations spanning from 30 to 0.12 µM, i.e., a 1667–416,667 times dilution from the 50 mM stocks.” left out

[4] = test system: B. subtilis (NBRC/ATCC #111470); experiment: Antibacterial resazurin assay, laboratory strain; settings: for pEC50 / EC90: Bacillus subtilis, ATCC111470, 18 h; for pEC50: read-out: Bsu EC50; for EC90: read-out: Bsu EC90; for Selectivity index B. subtilis: mean of MCF-7 and HepG2 EC50 over bacterial EC50, laboratory strain
[5] = test system: P. putida (NBRC/ATCC #100650); experiment: Antibacterial resazurin assay, laboratory strain; settings: for EC90: read-out: Ppu EC90; for Selectivity index P. putida: mean of MCF-7 and HepG2 EC50 over bacterial EC50, laboratory strain
[6] = test system: P. carotovorum (NBRC/ATCC #3380); experiment: Antibacterial resazurin assay, laboratory strain; settings: for EC90: read-out: Pcar EC90; for Selectivity index P. carotovorum: mean of MCF-7 and HepG2 EC50 over bacterial EC50, laboratory strain
[7] = test system: P. caledonica (NBRC/ATCC #102488); experiment: Antibacterial resazurin assay, laboratory strain; settings: for pEC50 / EC90: Paraburkholderia caledonica, ATCC102488, 18 h; for pEC50: read-out: Pcal EC50; for EC90: read-out: Pcal EC90; for Selectivity index P. caledonica: mean of MCF-7 and HepG2 EC50 over bacterial EC50, laboratory strain
Plasmodium falciparum = test system: Plasmodium falciparum; parameters: method as in PMID 28674055; settings: erythrocyte stage; cited from earlier work
Trypanosoma cruzi = test system: Trypanosoma cruzi; parameters: method as in earlier work; settings: PubChem AID 1314398; read-out: effective against Trypanosoma cruzi; cited from earlier work
[8] = Pseudomonas putida, ATCC100650, 18 h, read-out: Ppu EC50, laboratory strain, 18 h, 37 °C, AlamarBlue
[9] = Pseudomonas putida, ATCC100650, 18 h
[10] = Pectobacterium carotovorum, ATCC3380, 18 h, read-out: Pcar EC50, laboratory strain, 18 h, 37 °C, AlamarBlue
[11] = Pectobacterium carotovorum, ATCC3380, 18 h
[12] = read-out: Ppu EC50, laboratory strain, 18 h, 37 °C, AlamarBlue
[13] = read-out: Pcar EC50, laboratory strain, 18 h, 37 °C, AlamarBlue

Structure (SMILES): N=C(N)Nc1ccc(-c2ccc(C(=O)N3CCc4cc(NC(=N)N)ccc43)o2)cc1 [Compound 17, (5-(4-guanidinophenyl)furan-2-yl)(5-guanidinoindolin-1-yl)methanone]
- pEC50 [1]: < 3.70
- EC90 [1]: > 200 µM
- pEC50 [2]: 3.83
- EC90 [2]: > 200 µM
- Selectivity index A. baumannii (CCUG #57035) [2]: 1.3
- pEC50 [3]: < 3.70
- EC90 [3]: > 200 µM
- pEC50 [4]: < 3.52
- EC90 [4]: > 300 µM
- pEC50 [5, 8]: 4.13
- EC90 [5, 9]: 98 µM
- Selectivity index P. putida [5]: 2.6
- pEC50 [6, 10]: 3.89
- EC90 [6, 11]: 142 µM
- Selectivity index P. carotovorum [6]: 1.5
- pEC50 [7]: 4.14
- EC90 [7]: > 300 µM
- Selectivity index P. caledonica [7]: 2.7

Structure (SMILES): COc1cc(NC(=N)N)ccc1-c1ccc(-c2ccc(NC(=N)N)cc2OC)o1 [Compound 6, 2,5-Bis(4-guanidino-2-methoxyphenyl)furan]
- pEC50 [1]: 4.99
- EC90 [1]: 12.7 µM
- Selectivity index K. pneumoniae (CCUG #225T) [1]: 14.0
- pEC50 [2]: 5.17
- EC90 [2]: 11 µM
- Selectivity index A. baumannii (CCUG #57035) [2]: 21.3
- pEC50 [3]: 4.80
- EC90 [3]: 22.9 µM
- Selectivity index E. hormaechei (CCUG #58962) [3]: 9.0
- pEC50 [4]: < 3.52
- EC90 [4]: > 300 µM
- pEC50 [5, 8]: ~4.84
- EC90 [5, 9]: 19.7 µM
- Selectivity index P. putida [5]: 10.1
- pEC50 [5, 12]: 4.84
- pEC50 [6, 10]: ~4.55
- EC90 [6, 11]: 45 µM
- Selectivity index P. carotovorum [6]: 5.1
- pEC50 [6, 13]: 4.55
- pEC50 [7]: 4.59
- EC90 [7]: 35.6 µM
- Selectivity index P. caledonica [7]: 5.6

Structure (SMILES): Cc1cc(NC(=N)N)ccc1-c1ccc(-c2ccc(NC(=N)N)cc2C)o1 [Compound 4, 2,5-Bis(4-guanidino-2-methylphenyl)furan]
- pEC50 [1]: 4.82
- EC90 [1]: 22.7 µM
- Selectivity index K. pneumoniae (CCUG #225T) [1]: 4.9
- pEC50 [2]: 4.80
- EC90 [2]: 23.5 µM
- Selectivity index A. baumannii (CCUG #57035) [2]: 4.7
- pEC50 [3]: 4.66
- EC90 [3]: 25.9 µM
- Selectivity index E. hormaechei (CCUG #58962) [3]: 3.4
- pEC50 [4]: 5.21
- EC90 [4]: 8.5 µM
- Selectivity index B. subtilis [4]: 12.2
- pEC50 [5, 8]: ~4.84
- EC90 [5, 9]: 59.6 µM
- Selectivity index P. putida [5]: 5.2
- pEC50 [5, 12]: 4.84
- pEC50 [6, 10]: ~4.55
- EC90 [6, 11]: 37.3 µM
- Selectivity index P. carotovorum [6]: 2.6
- pEC50 [6, 13]: 4.54
- pEC50 [7]: 5.09
- EC90 [7]: 51.9 µM
- Selectivity index P. caledonica [7]: 9.2

Structure (SMILES): N=C(N)NCc1ccc(-c2ccc(-c3ccc(CNC(=N)N)cc3)o2)cc1 [Compound 10, 2,5-Bis(4-guanidinomethylphenyl)furan]
- pEC50 [1]: < 3.70
- EC90 [1]: > 200 µM
- pEC50 [2]: < 3.70
- EC90 [2]: > 200 µM
- pEC50 [3]: < 3.70
- EC90 [3]: > 200 µM
- pEC50 [4]: < 3.52
- EC90 [4]: > 300 µM
- pEC50 [5, 8]: 4.59
- EC90 [5, 9]: 36.7 µM
- Selectivity index P. putida [5]: 3.6
- pEC50 [6, 10]: 4.36
- EC90 [6, 11]: 61.2 µM
- Selectivity index P. carotovorum [6]: 2.1
- pEC50 [7]: 5.54
- EC90 [7]: 5 µM
- Selectivity index P. caledonica [7]: 31.8

Structure (SMILES): COC(=O)c1cc(NC(=N)N)ccc1-c1ccc(-c2ccc(NC(=N)N)cc2C(=O)OC)o1 [Compound 8, 2,5-Bis(4-guanidino-2-(methylcarboxy)phenyl)furan]
- pEC50 [1]: 5.25
- EC90 [1]: 7.9 µM
- Selectivity index K. pneumoniae (CCUG #225T) [1]: 43.3
- pEC50 [2]: 5.28
- EC90 [2]: 7 µM
- Selectivity index A. baumannii (CCUG #57035) [2]: 47.2
- pEC50 [3]: 5.08
- EC90 [3]: 8.7 µM
- Selectivity index E. hormaechei (CCUG #58962) [3]: 29.4
- pEC50 [4]: 4.65
- EC90 [4]: 43.6 µM
- Selectivity index B. subtilis [4]: 10.8
- pEC50 [5, 8]: 4.16
- EC90 [5, 9]: 92.1 µM
- Selectivity index P. putida [5]: 3.6
- pEC50 [6, 10]: 3.85
- EC90 [6, 11]: 158 µM
- Selectivity index P. carotovorum [6]: 1.7
- pEC50 [7]: < 3.52
- EC90 [7]: > 300 µM

Structure (SMILES): N=C(N)Nc1ccc(-c2ccc(-c3ccc(NC(=N)N)cc3)o2)cc1 [Compound 3]
- pEC50 [1]: 5.55
- EC90 [1]: 3.1 µM
- Selectivity index K. pneumoniae (CCUG #225T) [1]: 45.2
- pEC50 [2]: 5.80
- EC90 [2]: 2.4 µM
- pEC50 [3]: 5.12
- EC90 [3]: 9.1 µM
- Selectivity index E. hormaechei (CCUG #58962) [3]: 16.4
- pEC50 [4]: 4.95
- EC90 [4]: 22.5 µM
- Selectivity index B. subtilis [4]: 11.1
- pEC50 [5, 8]: 5.08
- EC90 [5, 9]: 14.3 µM
- Selectivity index P. putida [5]: 15.0
- pEC50 [6, 10]: 4.46
- EC90 [6, 11]: 79 µM
- Selectivity index P. carotovorum [6]: 3.6
- pEC50 [7]: 5.35
- EC90 [7]: 18.9 µM
- Selectivity index P. caledonica [7]: 27.4

Structure (SMILES): N=C(N)Nc1ccc(-c2ccc(-c3ccc(NC(=N)N)cc3Cl)o2)c(Cl)c1 [Compound 1, 2,5-Bis(2-chloro-4-guanidinophenyl)furan]
- pEC50 [1]: 5.57
- EC90 [1]: 3.2 µM
- Selectivity index K. pneumoniae (CCUG #225T) [1]: 14.4
- pEC50 [2]: 5.33
- EC90 [2]: 6.3 µM
- Selectivity index A. baumannii (CCUG #57035) [2]: 8.3
- pEC50 [3]: 5.11
- EC90 [3]: 9.1 µM
- Selectivity index E. hormaechei (CCUG #58962) [3]: 5.0
- pEC50 (Plasmodium falciparum): 6.23
- pEC50 (Trypanosoma cruzi): 6.54
- pEC50 [4]: 4.60
- EC90 [4]: 136 µM
- Selectivity index B. subtilis [4]: 1.5
- pEC50 [5, 8]: 3.59
- EC90 [5, 9]: 517 µM
- Selectivity index P. putida [5]: 0.2
- pEC50 [6, 10]: 4.17
- EC90 [6, 11]: 115 µM
- Selectivity index P. carotovorum [6]: 0.6
- pEC50 [7]: 4.69
- EC90 [7]: 136 µM
- Selectivity index P. caledonica [7]: 1.9

Structure (SMILES): N=C(N)Nc1ccc(-c2ccc(C(=O)N3CCc4cc(NC(=N)N)ccc43)o2)c(Cl)c1 [Compound 16, (5-(2-chloro-4-guanidinophenyl)furan-2-yl)(5-guanidinoindolin-1-yl)methanone]
- pEC50 [1]: 5.01
- EC90 [1]: 12.2 µM
- Selectivity index K. pneumoniae (CCUG #225T) [1]: 21.4
- pEC50 [2]: 4.78
- EC90 [2]: 24.4 µM
- Selectivity index A. baumannii (CCUG #57035) [2]: 12.7
- pEC50 [3]: 4.90
- EC90 [3]: 14.7 µM
- Selectivity index E. hormaechei (CCUG #58962) [3]: 16.4
- pEC50 [4]: < 3.52
- EC90 [4]: > 300 µM
- pEC50 [5, 8]: 4.03
- EC90 [5, 9]: 147 µM
- Selectivity index P. putida [5]: 2.2
- pEC50 [6, 10]: 4.15
- EC90 [6, 11]: 80.7 µM
- Selectivity index P. carotovorum [6]: 2.9
- pEC50 [7]: 4.29
- EC90 [7]: 176 µM
- Selectivity index P. caledonica [7]: 4.1
